Assay results taken from patent US7514433B2, “1H-indole-6-yl-piperazin-1-yl-methanone derivatives” (Hoffmann-La Roche Inc., priority 2006, dated 2009).
Counter-ions that a name gives are not always drawn.

Molecular target: T1, histamine 3 receptor (H3R) (Homo sapiens, UniProt Q9Y5N1)
T1 construct: expressed in transfected cells; host or cells: CHO cells (HR3-CHO cell line), membranes
Test: Binding assay with 3H-(R)α-methylhistamine (competition binding, membranes of the human HR3-CHO cell line)
Conditions: competition against 3H(R)α-methylhistamine (1 nM), Ki calculated from IC50 by the Cheng-Prusoff equation
Method: Binding assay with ^3H-(R)α-methylhistamine
Saturation binding experiments were performed using HR3-CHO membranes prepared as described in Takahashi, K, Tokita, S., Kotani, H. (2003) J. Pharmacol. Exp. Therapeutics 307, 213-218.
An appropriate amount of membrane (60 to 80 μg protein/well) was incubated with increasing concentrations of ^3H(R)α-Methylhistamine di-hydrochloride (0.10 to 10 nM). Non specific binding was determined using a 200 fold excess of cold (R)α-Methylhistamine dihydrobromide (500 nM final concentration). The incubation was carried out at room temperature (in deep-well plates shaking for three hours). The final volume in each well was 250 μl. The incubation was followed by rapid filtration on GF/B filters (pre-soaked with 100 μl of 0.5% PEI in Tris 50 mM shaking at 200 rpm for two hours). The filtration was made using a cell-harvester and the filter plates were then washed five times with ice cold washing buffer containing 0.5 M NaCl. After harvesting, the plates were dried at 55° C. for 60 min, then we added scintillation fluid (Microscint 40, 40 microl in each well) and the amount of radioactivity on the filter was determined in Packard top-counter after shaking the plates for two hours at 200 rpm at room temperature.
Binding Buffer: 50 mM Tris-HCl pH 7.4 and 5 mM MgCl2×6H2O pH 7.4.
Washing Buffer: 50 mM Tris-HCl pH 7.4 and 5 mM MgCl2×6H2O and 0.5 M NaCl pH 7.4.
Indirect measurement of affinity of H3R inverse agonists: twelve increasing concentrations (ranging from 10 μM to 0.3 nM) of the selected compounds were always tested in competition binding experiments using membrane of the human HR3-CHO cell line. […]
All compounds were tested at a single concentration in duplicate. […] Ki's were calculated from IC50 based on Cheng-Prusoff equation (Cheng, Y, Prusoff, W H (1973) Biochem Pharmacol 22, 3099-3108): Ki=IC50/[1+D/Kd] wherein D is the concentration of the radioligand and Kd is the binding constant for the radioligand binding to the receptor under the conditions used in the competition experiment.

T1 sequence (Q9Y5N1 whole entry): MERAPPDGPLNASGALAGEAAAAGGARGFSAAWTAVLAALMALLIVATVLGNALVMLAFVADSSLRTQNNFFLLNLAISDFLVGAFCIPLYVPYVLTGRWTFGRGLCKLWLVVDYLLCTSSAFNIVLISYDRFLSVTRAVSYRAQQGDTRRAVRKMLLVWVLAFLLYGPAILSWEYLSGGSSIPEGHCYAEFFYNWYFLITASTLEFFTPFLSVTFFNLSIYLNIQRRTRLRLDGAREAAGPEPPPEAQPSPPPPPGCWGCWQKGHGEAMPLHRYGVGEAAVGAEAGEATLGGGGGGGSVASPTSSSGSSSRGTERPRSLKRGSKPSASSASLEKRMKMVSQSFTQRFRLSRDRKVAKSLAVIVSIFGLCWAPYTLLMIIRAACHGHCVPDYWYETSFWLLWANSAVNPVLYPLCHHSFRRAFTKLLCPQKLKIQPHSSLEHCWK

Row | Ki [nM] | Structure (SMILES)
1 | 17.6 | CC(C)CN1CC=C(c2cn(-c3ccc(F)cc3F)c3cc(C(=O)N4CCN(C(C)C)CC4)ccc23)CC1 [Example 54, [1-(2,4-Difluoro-phenyl)-3-(1-isobutyl-1,2,3,6-tetrahydro-pyridin-4-yl)-1H-indol-6-yl]-(4-isopropyl-piperazin-1-yl)-methanone]
2 | 24.3 | CC(C)CN1CCC(c2c[nH]c3cc(C(=O)N4CCN(C(C)C)CC4)ccc23)CC1 [Example 2, [3-(1-Isobutyl-piperidin-4-yl)-1H-indol-6-yl]-(4-isopropyl-piperazin-1-yl)-methanone; hydrochloride]
3 | 33.1 | CN1CCCC1c1c[nH]c2cc(C(=O)N3CCN(C4CCCC4)CC3)ccc12 (stereo not drawn) [Example 35, (4-Cyclopentyl-piperazin-1-yl)-[3-(1-methyl-pyrrolidin-2-yl)-1H-indol-6-yl]-methanone]
